In patent US8129389B2, “Substituted oxindole derivatives, medicaments containing the latter and use thereof” (Abbott GmbH & Co. KG, priority 2005, dated 2012):
Read-outs that look alike come from different tables or passages of the source.

Molecular target: T1, human V1b receptors (Homo sapiens, UniProt P47901)
T1 construct: expressed in transfected cells
T1 sequence (P47901 1-424): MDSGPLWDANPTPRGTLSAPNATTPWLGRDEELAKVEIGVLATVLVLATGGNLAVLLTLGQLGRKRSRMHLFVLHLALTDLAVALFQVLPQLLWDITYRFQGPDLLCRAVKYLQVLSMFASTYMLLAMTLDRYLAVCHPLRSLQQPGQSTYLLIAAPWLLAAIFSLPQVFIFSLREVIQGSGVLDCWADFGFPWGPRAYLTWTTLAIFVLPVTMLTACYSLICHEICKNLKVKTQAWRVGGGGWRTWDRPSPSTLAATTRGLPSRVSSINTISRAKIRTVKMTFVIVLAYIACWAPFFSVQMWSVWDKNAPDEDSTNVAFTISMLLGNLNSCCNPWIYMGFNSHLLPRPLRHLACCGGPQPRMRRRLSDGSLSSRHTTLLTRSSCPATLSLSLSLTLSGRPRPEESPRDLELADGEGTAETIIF
Experiment: Vasopressin V1b receptor binding assay
Description: Vasopressin V1b Receptor Binding Assay:
These DMSO solutions were diluted 1:10 with assay buffer. The substance concentration was further diluted 1:10 in the assay mixture.
The nonspecific binding was determined with 10^−6 M AVP. Determinations in triplicate were carried out.
The affinities for the human vasopressin V1b receptor were measured, and affinity constants determined, in the above assay for the inventive examples.
The affinities of the compounds (I) of the invention for the human vasopressin V1b receptor were measured in accordance with the above assays, and the affinity constants (Ki) were determined. Table 1 below details the V1b receptor affinity of selected compounds (+++ means <10 nM and ++ means 10-100 nM).

[1] = Table 1, human vasopressin V1b receptor affinity, read-out: V1b Ki
[2] = membranes from CHO-K1 cells, 3H-AVP displacement, read-out: measured Ki values, affinities for the vasopressin V1b receptor

CCOc1ccccc1C1(NC(=O)N2CCN(c3ccc(C#N)cn3)CC2)C(=O)N(S(=O)(=O)c2ccccc2OC)c2ccc(C#N)cc21 (centres unmarked) [Example 45, 4-(5-Cyanopyridin-2-yl)piperazine-1-[1-(2-methoxybenzenesulfonyl)-5-cyano-2-oxo-3-(2-ethoxyphenyl)-2,3-dihydro-1H-indol-3-yl]carboxamide]
Ki [1]: 10 to 100 nM | Ki [2]: < 100 nM

CCOc1ccccc1C1(NC(=O)N2CCN(c3ncccc3C)CC2)C(=O)N(S(=O)(=O)c2ccc(OC)cc2OC)c2ccc(C#N)cc21 (centres unmarked) [Example 32, 4-(3-Methylpyridin-2-yl)piperazine-1-[1-(2,4-dimethoxybenzenesulfonyl)-5-cyano-2-oxo-3-(2-ethoxyphenyl)-2,3-dihydro-1H-indol-3-yl]carboxamide]
Ki [1]: 10 to 100 nM | Ki [2]: < 100 nM

CCOc1ccccc1C1(NC(=O)N2CCN(c3ccc(C#N)cn3)CC2)C(=O)N(S(=O)(=O)c2ccc([N+](=O)[O-])cc2)c2ccc(C#N)cc21 (centres unmarked) [Example 43, 4-(5-Cyanopyridin-2-yl)piperazine-1-[1-(4-nitrobenzenesulfonyl)-5-cyano-2-oxo-3-(2-ethoxyphenyl)-2,3-dihydro-1H-indol-3-yl]carboxamide]
Ki [1]: 10 to 100 nM | Ki [2]: < 100 nM

CCOc1ccccc1C1(OC(=O)N2CCN(c3ccncc3)CC2)C(=O)N(S(=O)(=O)c2ccc(C#N)cc2)c2ccc(C#N)cc21 (centres unmarked) [Example 18, 1-(4-Cyanobenzenesulfonyl)-5-cyano-2-oxo-3-(2-ethoxyphenyl)-2,3-dihydro-1H-indol-3-yl 4-(pyridin-4-yl)piperazine-1-carboxylate]
Ki [1]: 10 to 100 nM | Ki [2]: < 100 nM

CCOc1ccccc1C1(OC(=O)N2CCN(c3ccncc3)CC2)C(=O)N(S(=O)(=O)c2ccc(OC)cc2OC)c2ccc(C#N)cc21 (centres unmarked) [Example 3, 5-Cyano-1-(2,4-dimethoxybenzenesulfonyl)-3-(2-ethoxyphenyl)-2-oxo-2,3-dihydro-1H-indol-3-yl 4-(pyridin-4-yl)piperazine-1-carboxylate]
Ki [1]: < 10 nM | Ki [2]: < 100 nM

CCOc1ccccc1C1(OC(=O)N2CCN(c3ccncc3)CC2)C(=O)N(S(=O)(=O)c2ccc([N+](=O)[O-])cc2)c2ccc(C#N)cc21 (centres unmarked) [Example 19, 1-(4-Nitrobenzenesulfonyl)-5-cyano-2-oxo-3-(2-ethoxyphenyl)-2,3-dihydro-1H-indol-3-yl 4-(pyridin-4-yl)piperazine-1-carboxylate]
Ki [1]: < 10 nM | Ki [2]: < 100 nM

CCOc1ccccc1C1(OC(=O)N2CCN(c3nccs3)CC2)C(=O)N(S(=O)(=O)c2ccc(OC)cc2OC)c2ccc(C#N)cc21 (centres unmarked) [Example 30, 1-(2,4-Dimethoxybenzenesulfonyl)-5-cyano-2-oxo-3-(2-ethoxyphenyl)-2,3-dihydro-1H-indol-3-yl 4-(thiazol-2-yl)piperazine-1-carboxylate]
Ki [1]: < 10 nM | Ki [2]: < 100 nM

CCOc1ccccc1C1(NC(=O)N2CCN(c3nccs3)CC2)C(=O)N(S(=O)(=O)c2ccc(OC)cc2OC)c2ccc(C#N)cc21 (centres unmarked) [Example 31, 4-(Thiazol-2-yl)piperazine-1-[1-(2,4-dimethoxybenzenesulfonyl)-5-cyano-2-oxo-3-(2-ethoxyphenyl)-2,3-dihydro-1H-indol-3-yl]carboxamide]
Ki [1]: < 10 nM | Ki [2]: < 100 nM

CCOc1ccccc1C1(OC(=O)N2CCN(c3ccncc3)CC2)C(=O)N(S(=O)(=O)c2ccc(F)cc2)c2ccc(C#N)cc21 (centres unmarked) [Example 21, 1-(4-Fluorobenzenesulfonyl)-5-cyano-2-oxo-3-(2-ethoxyphenyl)-2,3-dihydro-1H-indol-3-yl 4-(pyridin-4-yl)piperazine-1-carboxylate]
Ki [1]: 10 to 100 nM | Ki [2]: < 100 nM

CCOc1ccccc1C1(NC(=O)N2CCN(c3ncccn3)CC2)C(=O)N(S(=O)(=O)c2ccc(OC)cc2OC)c2ccc(C#N)cc21 (centres unmarked) [Example 34, 4-(Pyrimidin-2-yl)piperazine-1-[1-(2,4-dimethoxybenzenesulfonyl)-5-cyano-2-oxo-3-(2-ethoxyphenyl)-2,3-dihydro-1H-indol-3-yl]carboxamide]
Ki [1]: < 10 nM | Ki [2]: < 100 nM

CCOc1ccccc1C1(OC(=O)N2CCN(c3cnccn3)CC2)C(=O)N(S(=O)(=O)c2ccc(OC)cc2OC)c2ccc(C#N)cc21 (centres unmarked) [Example 29, 1-(2,4-Dimethoxybenzenesulfonyl)-5-cyano-2-oxo-3-(2-ethoxyphenyl)-2,3-dihydro-1H-indol-3-yl 4-(pyrazin-2-yl)piperazine-1-carboxylate]
Ki [1]: 10 to 100 nM | Ki [2]: < 100 nM

CCOc1ccccc1C1(OC(=O)N2CCN(c3ncccn3)CC2)C(=O)N(S(=O)(=O)c2ccc(OC)cc2OC)c2ccc(C#N)cc21 (centres unmarked) [Example 27, 1-(2,4-Dimethoxybenzenesulfonyl)-5-cyano-2-oxo-3-(2-ethoxyphenyl)-2,3-dihydro-1H-indol-3-yl 4-(pyrimidin-2-yl)piperazin-1-carboxylate]
Ki [1]: 10 to 100 nM | Ki [2]: < 100 nM

CCOc1ccccc1C1(NC(=O)N2CCN(c3ccncc3)CC2)C(=O)N(S(=O)(=O)c2ccc(C)cc2OC)c2ccc(C#N)cc21 (centres unmarked) [Example 15, 4-(Pyridin-4-yl)piperazine-1-[1-(2-methoxy-4-methylbenzenesulfonyl)-5-cyano-2-oxo-3-(2-ethoxyphenyl)-2,3-dihydro-1H-indol-3-yl]carboxamide]
Ki [1]: < 10 nM | Ki [2]: < 100 nM
